Measurements reported in patent publication US3939143A, “1-N-isoserylkanamycins and the production thereof” (Zaidan Hojin Biseibutsu Kagaku Kenkyu Kai, priority 1973, dated 1976).
≈ marks a conversion by molar mass, not a printed value. Like-named read-outs stand apart in the source and are kept apart here.

What was measured:
[1] = system: Staphylococcus aureus FDA 209P; assay: Minimum inhibitory concentration, serial dilution on nutrient agar; type: cell-based; conditions: FDA209P, read-out: Minimum Inhibitory Concentration
[2] = system: Escherichia coli W677; assay: as above; type: cell-based; conditions: read-out: Minimum Inhibitory Concentration
[3] = system: Escherichia coli K-12 ML 1629; assay: as above; type: cell-based; conditions: K12ML1629, 18 h, read-out: Minimum Inhibitory Concentration
[4] = system: Klebsiella pneumoniae PCI 602; assay: as above; type: cell-based; conditions: read-out: Minimum Inhibitory Concentration
[5] = system: Escherichia coli JR66/W677; assay: as above; type: cell-based; conditions: JR66/W677, 18 h, read-out: Minimum Inhibitory Concentration
[6] = system: Escherichia coli LA290 R56; assay: as above; type: cell-based; conditions: LA290R56, 18 h, read-out: Minimum Inhibitory Concentration
[7] = system: Shigella dysenteriae JS 11910; assay: as above; type: cell-based; conditions: JS11910, 18 h, read-out: Minimum Inhibitory Concentration
[8] = system: Staphylococcus aureus Terajima; assay: as above; type: cell-based; conditions: read-out: Minimum Inhibitory Concentration
[9] = system: Mycobacterium smegmatis ATCC 607; assay: as above; type: cell-based; conditions: Mycolicibacterium smegmatis, read-out: Minimum Inhibitory Concentration
[10] = system: Sarcina lutea PCI 1001; assay: as above; type: cell-based; conditions: Micrococcus luteus, read-out: Minimum Inhibitory Concentration
[11] = system: Escherichia coli NIHJ; assay: as above; type: cell-based; conditions: 18 h, read-out: Minimum Inhibitory Concentration
[12] = system: Pseudomonas aeruginosa 99; assay: as above; type: cell-based; conditions: read-out: Minimum Inhibitory Concentration
[13] = system: Bacillus subtilis PCI 219; assay: as above; type: cell-based; conditions: read-out: Minimum Inhibitory Concentration
[14] = system: Escherichia coli K-12 ML 1410 R81; assay: as above; type: cell-based; conditions: 18 h, read-out: Minimum Inhibitory Concentration
[15] = system: Pseudomonas aeruginosa GN315; assay: as above; type: cell-based; conditions: read-out: Minimum Inhibitory Concentration
[16] = system: Staphylococcus aureus Smith; assay: as above; type: cell-based; conditions: read-out: Minimum Inhibitory Concentration
[17] = system: Escherichia coli LA290 R64; assay: as above; type: cell-based; conditions: LA290R64, 18 h, read-out: Minimum Inhibitory Concentration
[18] = system: Corynebacterium bovis 1810; assay: as above; type: cell-based; conditions: Corynebacterium bovis, 1810, 18 h, read-out: Minimum Inhibitory Concentration
[19] = system: Klebsiella pneumoniae 22 No. 3038; assay: as above; type: cell-based; conditions: 22NO.3038, 18 h, read-out: Minimum Inhibitory Concentration
[20] = system: Pseudomonas aeruginosa TI-13; assay: as above; type: cell-based; conditions: TI13, 37°C, 18 hours
Experimental: (§1) The minimum inhibitory concentrations (mcg/ml) of 1-N-DL-isoserylkanamycin,1-N-DL-isoserylkanamycin B and 1-N-DL-isoseryl-3',4'-dideoxykanamycin B against various microorganisms were determined according to the serial dilution method using nutrient agar medium at 37°C, the estimation being effected after 18 hours incubation. For comparison purposes, the minimum inhibitory concentrations of kanamycin, kanamycin B and 3',4'-dideoxykanamycin B were also determined in the same manner and under the same conditions as mentioned above.
(§2) The antibacterial spectra of 1-N-DL-isoseryl-kanamycin (abbreviated as 1-IS-KM), 1-N-DL-isoseryl-kanamycin B (abbreviated as 1-IS-KMB) and 1-N-DL-isoseryl-3',4'-dideoxykanamycin B (abbreviated as 1-IS-DKB) are shown in the following table together with those of kanamycin (abbreviatedas KM), kanamycin B (abbreviated as KMB) and 3',4'-dideoxykanamycin B (abbreviated as DKB).

[21] = system: Pseudomonas aeruginosa A3; assay: as above; type: cell-based; conditions: 37°C, 18 hours
Experimental: as §1, §2

[22] = system: Shigella flexneri 4b JS 11811; assay: as above; type: cell-based; conditions: 4BJS11811, 37°C, 18 hours
Experimental: as §1, §2

[23] = system: Shigella sonnei JS 11746; assay: as above; type: cell-based; conditions: JS11746, 37°C, 18 hours
Experimental: as §1, §2

[24] = system: Escherichia coli K-12 ML 1630; assay: as above; type: cell-based; conditions: K12ML1630, 37°C, 18 hours
Experimental: as §1, §2

[25] = system: Escherichia coli K-12; assay: as above; type: cell-based; conditions: read-out: Minimum Inhibitory Concentration
[26] = system: Pseudomonas aeruginosa No.12; assay: as above; type: cell-based; conditions: read-out: Minimum Inhibitory Concentration
[27] = system: Bacillus cereus ATCC 10702; assay: as above; type: cell-based; conditions: read-out: Minimum Inhibitory Concentration
[28] = system: Bacillus anthracis; assay: microbe, parasite or virus in culture; type: cell-based; conditions: 18 h, read-out: Minimum Inhibitory Concentration
[29] = system: Bacillus subtilis NRRL B-558; assay: Minimum inhibitory concentration, serial dilution on nutrient agar; type: cell-based; conditions: read-out: Minimum Inhibitory Concentration
[30] = system: Escherichia coli LA290 R55; assay: as above; type: cell-based; conditions: LA290R55, 18 h, read-out: Minimum Inhibitory Concentration
[31] = system: Salmonella typhosa T-63; assay: as above; type: cell-based; conditions: Salmonella enterica, 18 h, read-out: Minimum Inhibitory Concentration
[32] = system: Escherichia coli K-12 ML 1410; assay: as above; type: cell-based; conditions: K12ML1410, 18 h, read-out: Minimum Inhibitory Concentration
[33] = system: Salmonella enteritidis 1891; assay: as above; type: cell-based; conditions: Salmonella enterica, read-out: Minimum Inhibitory Concentration
[34] = system: Proteus vulgaris OX 19; assay: as above; type: cell-based; conditions: read-out: Minimum Inhibitory Concentration
[35] = system: gram-negative and gram-positive bacteria; assay: antibacterial activity, in words; type: cell-based; conditions: gram-negative and gram-positive bacteria sensitive to kanamycins
Experimental: as §1, §2

[36] = system: drug-resistant strains of Escherichia coli and Pseudomonas aeruginosa; assay: antibacterial activity against drug-resistant strains, in words; type: cell-based
[37] = acute toxicity upon intravenous injection in mice; type: in vivo; conditions: mouse, in vivo; intravenous injection, mice

SMILES | MIC [3] [µg/mL] | MIC [5] [µg/mL] | MIC [6] [µg/mL] | MIC [7] [µg/mL] | MIC [11] [µg/mL] | MIC [14] [µg/mL] | MIC [17] [µg/mL] | MIC [18] [µg/mL] | MIC [19] [µg/mL] | MIC [20] [µg/mL] | MIC [21] [µg/mL] | MIC [22] [µg/mL] | MIC [23] [µg/mL] | MIC [24] [µg/mL] | MIC [28] [µg/mL] | MIC [30] [µg/mL] | MIC [31] [µg/mL] | MIC [32] [µg/mL] | further results
NC[C@H]1O[C@H](O[C@H]2[C@H](O)[C@@H](O[C@H]3O[C@H](CO)[C@@H](O)[C@H](N)[C@H]3O)[C@H](N)C[C@@H]2N)[C@H](N)[C@@H](O)[C@@H]1O [KMB, kanamycin B, reference compound] | > 100 | > 100 | 3.13 (≈ 6.47 µM) | 3.13 (≈ 6.47 µM) | 0.78 (≈ 1.61 µM) | > 100 | 3.13 (≈ 6.47 µM) | 1.56 (≈ 3.23 µM) | > 100 | 100 (≈ 207 µM) | 50 (≈ 103 µM) | 3.13 (≈ 6.47 µM) | 1.56 (≈ 3.23 µM) | > 100 | < 0.2 | 12.5 (≈ 25.9 µM) | 0.2 (≈ 0.414 µM) | 0.78 (≈ 1.61 µM) | MIC ([1]; 18 h): 0.39 µg/mL (≈ 0.807 µM); MIC ([2]; W677, 18 h): 0.39 µg/mL (≈ 0.807 µM); MIC ([4]; PCI602, 18 h): 0.78 µg/mL (≈ 1.61 µM); MIC ([8]; 18 h): < 0.2 µg/mL; MIC ([9]; ATCC607, 18 h): 0.78 µg/mL (≈ 1.61 µM); MIC ([10]; PCI1001, 18 h): 1.56 µg/mL (≈ 3.23 µM); MIC ([12]; Pseudomonas aeruginosa, 99, 18 h): > 100 µg/mL; MIC ([13]; PCI219, 18 h): < 0.2 µg/mL; MIC ([15]; GN315, 18 h): > 100 µg/mL; MIC ([16]; 18 h): < 0.2 µg/mL; MIC ([25]; K12, 18 h): 0.78 µg/mL (≈ 1.61 µM); MIC ([26]; NO.12, 18 h): 12.5 µg/mL (≈ 25.9 µM); MIC ([27]; ATCC10702, 18 h): 0.78 µg/mL (≈ 1.61 µM); MIC ([29]; NRRLB558, 18 h): < 0.2 µg/mL; MIC ([33]; 18 h): 1.56 µg/mL (≈ 3.23 µM); MIC ([34]; OX19, 18 h): 0.78 µg/mL (≈ 1.61 µM)
NCC(O)C(=O)N[C@@H]1C[C@H](N)[C@@H](O[C@H]2O[C@H](CN)[C@@H](O)[C@H](O)[C@H]2O)[C@H](O)[C@H]1O[C@H]1O[C@H](CO)[C@@H](O)[C@H](N)[C@H]1O (mixture of isomers) [1-IS-KM, 1-N-DL-isoserylkanamycin] | 1.56 | 3.13 | 0.78 | 3.13 | 1.56 | 1.56 | 0.78 | 1.56 | 1.56 | 3.13 | 3.13 | 3.13 | 1.56 | 1.56 | < 0.2 | 1.56 | 0.78 | 1.56 | antibacterial activity [35]: high antibacterial activity; MIC ([1]; 37°C, 18 hours): 0.78 µg/mL; MIC ([2]; W677, 37°C, 18 hours): 0.78 µg/mL; MIC ([4]; PCI602, 37°C, 18 hours): 0.39 µg/mL; MIC ([8]; 37°C, 18 hours): < 0.2 µg/mL; MIC ([9]; ATCC607, 37°C, 18 hours): 0.39 µg/mL; antibacterial activity [36]: high antibacterial activity; MIC ([10]; PCI1001, 37°C, 18 hours): 3.12 µg/mL; MIC ([12]; Pseudomonas aeruginosa, 99, 37°C, 18 hours): 6.25 µg/mL; MIC ([13]; PCI219, 37°C, 18 hours): < 0.2 µg/mL; MIC ([15]; GN315, 37°C, 18 hours): > 100 µg/mL; MIC ([16]; 37°C, 18 hours): 0.2 µg/mL; MIC ([25]; K12, 37°C, 18 hours): 0.78 µg/mL; MIC ([26]; NO.12, 37°C, 18 hours): 0.78 µg/mL; MIC ([27]; ATCC10702, 37°C, 18 hours): 0.78 µg/mL; LD50 [37]: > 200 mg/kg; MIC ([29]; NRRLB558, 37°C, 18 hours): < 0.2 µg/mL; MIC ([33]; 37°C, 18 hours): 0.78 µg/mL; MIC ([34]; OX19, 37°C, 18 hours): 0.39 µg/mL
